Test results reported in patent publication US20170107482A1, “ANIMAL CELL REGENERATION SPEED CONTROLLING METHOD AND ANIMAL CELL REGENERATION SPEED CONTROLLER” (TOYOTA BOSHOKU KABUSHIKI KAISHA, priority 2015, published 2017).

System: Planarians (Dugesia japonica)
Assay: Animal cell regeneration experiment (ii): head (eye) regeneration of cut planarians after immersion in Azakenpaullone
Assay type: in vivo
Details: 0.5 μM, 24 h immersion; for individuals died and disappeared before regeneration: among the total nine individuals
Procedure: Hereinafter, the present invention will be specifically described using Examples. In the following Examples 1 and 2, regeneration experiment was conducted using Planarians (Dugesia japonica) as one kind of flatworm.
Thereafter, the planarians belonging to Groups A and B were respectively placed in petri dishes, so that the amount of water per planarian was 2.5 mL, in a thermostat bath set to a temperature of 13° C. The planarians were grown for 14 days ([…]) under a condition and in an environment such that water was changed every three days. The respective regeneration states of their heads in this period were observed over time with an optical microscope every 24 hours after cutting to evaluate the degree of regeneration after 14 days had elapsed based on the following three references (see Teresa Adel et al., Dev Genes Evol (2008) 218:89-103, as for the references for the degree of regeneration). The planarians ranked as “regeneration degree 2” or “regeneration degree 3” were determined to “have been regenerated,” and those ranked as “regeneration degree 1” were determined to “be unregenerated.” The number of planarians determined to “have been regenerated” was counted over time, and the result thereof is indicated in Table 1.
“Regeneration degree 1”: Eyes being developed cannot be identified.
“Regeneration degree 2”: Eyes being developed can be identified.
“Regeneration degree 3”: Eyes can be identified.
Firstly, planarians having an equivalent size were selected, and divided into Group C (n=9) and Group D (n=9). For the planarians belonging to Group C, the living bodies were cut near the center at a timing in the same time zone as that for Group A in Example 1 (namely, immediately after the RGA turned downward from the maximum value immediately before) (see FIG. 2).
For the planarians (n=9) belonging to Group D, the living bodies were cut near the center at a timing in the same time zone as that for Group B in Example 1 (namely, immediately after the RGA turned upward from the minimum value immediately before) (see FIG. 2).
Thereafter, the planarians belonging to Groups C and D were respectively immersed for 24 hours in a solution of Azakenpaullone that is a drug suppressing normal differentiation at a concentration of 0.5 μM, then placed in petri dishes, so that the amount of water per planarian was 2.5 mL, in a thermostat bath set to a temperature of 13° C., and were grown for 15 days ([…]) under a condition and in an environment such that water was changed every three days. The respective regeneration states of their heads were observed over time with an optical microscope every 24 hours after cutting to evaluate the degree of regeneration after 15 days had elapsed in the same manner as in Example 1. At this time, the planarians were determined as to whether they “had been regenerated” or “were unregenerated” in the same manner as in Example 1. The number of planarians determined to “have been regenerated” was counted over time, and the result thereof is indicated in Table 2.
The treating method using Azakenpaullone was referred to a description of Teresa Adel et al., Dev Genes Evol 218(2008) 89-103.

individuals died and disappeared before regeneration (Group C, cut immediately after RGA turned downward): four
individuals died and disappeared before regeneration (Group D, cut immediately after RGA turned upward): three
SMILES: O=C1Cc2c([nH]c3ccc(Br)cc23)-c2ncccc2N1 [Azakenpaullone]
Number of planarians determined to have been regenerated (cumulative) (Group C (n=9), cut immediately after RGA turned downward from maximum, 0 h after cutting): 0
Number of planarians determined to have been regenerated (cumulative) (Group C (n=9), cut immediately after RGA turned downward from maximum, 24 h after cutting): 0
Number of planarians determined to have been regenerated (cumulative) (Group C (n=9), cut immediately after RGA turned downward from maximum, 48 h after cutting): 0
Number of planarians determined to have been regenerated (cumulative) (Group C (n=9), cut immediately after RGA turned downward from maximum, 72 h after cutting): 0
Number of planarians determined to have been regenerated (cumulative) (Group C (n=9), cut immediately after RGA turned downward from maximum, 96 h after cutting): 0
Number of planarians determined to have been regenerated (cumulative) (Group C (n=9), cut immediately after RGA turned downward from maximum, 120 h after cutting): 0
Number of planarians determined to have been regenerated (cumulative) (Group C (n=9), cut immediately after RGA turned downward from maximum, 144 h after cutting): 0
Number of planarians determined to have been regenerated (cumulative) (Group C (n=9), cut immediately after RGA turned downward from maximum, 168 h after cutting): 0
Number of planarians determined to have been regenerated (cumulative) (Group C (n=9), cut immediately after RGA turned downward from maximum, 192 h after cutting): 0
Number of planarians determined to have been regenerated (cumulative) (Group C (n=9), cut immediately after RGA turned downward from maximum, 216 h after cutting): 1
Number of planarians determined to have been regenerated (cumulative) (Group C (n=9), cut immediately after RGA turned downward from maximum, 240 h after cutting): 2
Number of planarians determined to have been regenerated (cumulative) (Group C (n=9), cut immediately after RGA turned downward from maximum, 264 h after cutting): 2
Number of planarians determined to have been regenerated (cumulative) (Group C (n=9), cut immediately after RGA turned downward from maximum, 288 h after cutting): 3
Number of planarians determined to have been regenerated (cumulative) (Group C (n=9), cut immediately after RGA turned downward from maximum, 312 h after cutting): 4
Number of planarians determined to have been regenerated (cumulative) (Group C (n=9), cut immediately after RGA turned downward from maximum, 336 h after cutting): 4
Number of planarians determined to have been regenerated (cumulative) (Group C (n=9), cut immediately after RGA turned downward from maximum, 360 h after cutting): 5
Number of planarians determined to have been regenerated (cumulative) (Group D (n=9), cut immediately after RGA turned upward from minimum, 0 h after cutting): 0
Number of planarians determined to have been regenerated (cumulative) (Group D (n=9), cut immediately after RGA turned upward from minimum, 24 h after cutting): 0
Number of planarians determined to have been regenerated (cumulative) (Group D (n=9), cut immediately after RGA turned upward from minimum, 48 h after cutting): 0
Number of planarians determined to have been regenerated (cumulative) (Group D (n=9), cut immediately after RGA turned upward from minimum, 72 h after cutting): 0
Number of planarians determined to have been regenerated (cumulative) (Group D (n=9), cut immediately after RGA turned upward from minimum, 96 h after cutting): 0
Number of planarians determined to have been regenerated (cumulative) (Group D (n=9), cut immediately after RGA turned upward from minimum, 120 h after cutting): 0
Number of planarians determined to have been regenerated (cumulative) (Group D (n=9), cut immediately after RGA turned upward from minimum, 144 h after cutting): 0
Number of planarians determined to have been regenerated (cumulative) (Group D (n=9), cut immediately after RGA turned upward from minimum, 168 h after cutting): 0
Number of planarians determined to have been regenerated (cumulative) (Group D (n=9), cut immediately after RGA turned upward from minimum, 192 h after cutting): 0
Number of planarians determined to have been regenerated (cumulative) (Group D (n=9), cut immediately after RGA turned upward from minimum, 216 h after cutting): 0
Number of planarians determined to have been regenerated (cumulative) (Group D (n=9), cut immediately after RGA turned upward from minimum, 240 h after cutting): 6
Number of planarians determined to have been regenerated (cumulative) (Group D (n=9), cut immediately after RGA turned upward from minimum, 264 h after cutting): 6
Number of planarians determined to have been regenerated (cumulative) (Group D (n=9), cut immediately after RGA turned upward from minimum, 288 h after cutting): 6
Number of planarians determined to have been regenerated (cumulative) (Group D (n=9), cut immediately after RGA turned upward from minimum, 312 h after cutting): 6
Number of planarians determined to have been regenerated (cumulative) (Group D (n=9), cut immediately after RGA turned upward from minimum, 336 h after cutting): 6
Number of planarians determined to have been regenerated (cumulative) (Group D (n=9), cut immediately after RGA turned upward from minimum, 360 h after cutting): 6
